Patent US20260216133A1, “AEROSOL COMPRISING 5-METHOXY-N,N-DIMETHYLTRYPTAMINE” (GH Research Ireland Limited, priority 2020, published 2026)
Where “and” joins values, the source holds several entries; their conditions need not be identical. Identical values can stand only once.

Key:
[1] = Aerosol particle formation rate (aerosolized dose/aerosolization time); format: physicochemical; details: aerosolization time 15 seconds
Experimental: The aerosol particle formation rate can be calculated as follows: Aerosol particle formation rate=Aerosolized dose/Aerosolization time. For the aerosolized dose data and the aerosolization time of 15 seconds from Example 2, the following aerosol particle formation rate was determined: […]

[2] = Aerosol 5-MeO-DMT mass density (aerosolized dose/aerosol volume); format: physicochemical; details: aerosol volume about 3 liters
Experimental: The aerosol 5-MeO-DMT mass density can be calculated as follows: Aerosol 5-MeO-DMT mass density =Aerosolized dose/Aerosol volume. For the aerosolized dose data and the aerosol volume of about 3 liters from Example 2, the following aerosol 5-MeO-DMT mass density was determined: […]

[3] = Particle size distribution of 5-MeO-DMT aerosol, Next Generation Impactor (NGI); format: physicochemical
Experimental: The particle size distribution of 5-MeO-DMT aerosol particles as generated according to the compositions and methods of the present invention are determined according to United States Pharmacopeia (USP) methods using the Next Generation Impactor (NGI) (United States Pharmacopeia (USP)<601> Apparatus 6) as shown in FIG. 2.
This device fractionates the bolus aerosol delivered into a discrete series of size ranges on the basis of particle or droplet inertia and provides a measure of the aerodynamic diameter of the aerosol droplets produced. The droplet size range captured by each stage in the NGI can be dependent on the measured airflow used. For the present analysis, experiments are carried out using an airflow of 30 liters/minute (Experiments 1 and 3) and of 15 liters/minute (Experiments 2 and 4).
Based on a log-normal distribution of particle sizes, the aerodynamic size distribution is characterized by the mass median aerodynamic diameter (MMAD) and geometric standard deviation (GSD). Moreover, the fine particle fraction (FPF) is determined as the weight percentage of droplets having an aerodynamic diameter of less than or equal to 5 μm, relative to the total of droplets on the impactor.
A first experiment is carried out using a Volcano Medic Vaporization System as described in Example 1 with dosing capsules having a nominal drug load of 6 mg 5-MeO-DMT free base/capsule. The aerosol recovered in the balloon is measured using the NGI operated using a flow rate of 30 liters/min.
A second experiment is carried also out using a Volcano Medic Vaporization System as described in Example 1 with dosing capsules having a nominal drug load of 6 mg 5-MeO-DMT free base/capsule. The aerosol recovered in the balloon is measured using the NGI operated using a flow rate of 15 liters/min.
In this experiment, NGI cups were coated with glycerol to prevent possible droplet re-entrainment. In addition, approximately 8 drops of 30% glycerol in water were added to each filter paper located underneath the corresponding NGI Stage Jets.

[4] = Degradation products of 5-MeO-DMT aerosol by HPLC after SPE extraction; details: 18 mg capsule, 210° C. aerosolization, Replicate 1, Extract 1; including the additional amount of Impurity 1
[5] = Aerosolization of 5-MeO-DMT from dosing capsules (Volcano Medic), aerosolized dose by weighing; details: triplicate capsules; for Aerosolized dose: 210° C., 12 l/min, 15 seconds
[6] = Experiment 1: 6 mg/capsule, NGI 30 liters/min, mean of 3 runs
[7] = Experiment 1: 6 mg/capsule, NGI 30 liters/min, single runs
[8] = Experiment 2: 6 mg/capsule, NGI 15 liters/min, Mean (Runs 1-3)
[9] = Experiment 2: 6 mg/capsule, NGI 15 liters/min, Mean (Runs 2, 3)
[10] = Experiment 3: 18 mg/capsule, NGI 30 liters/min, mean of 3 runs
[11] = Experiment 3: 18 mg/capsule, NGI 30 liters/min, single runs
[12] = Experiment 4: 18 mg/capsule, NGI 15 liters/min, glycerol-coated cups, single runs
[13] = Experiment 4: 18 mg/capsule, NGI 15 liters/min, mean of 3 runs

In the case of COc1ccc2[nH]cc(CCN(C)C)c2c1 [5-MeO-DMT, 5-methoxy-N,N-dimethyltryptamine], the “Aerosol particle formation rate” value ([1]; target dosage 2 mg) is reported as 0.12 mg/s, the “Aerosol particle formation rate” value ([1]; target dosage 18 mg) is reported as 1.09 mg/s and 1.08 mg/s and the “Aerosol 5-MeO-DMT mass density” value ([2]; target dosage 2 mg) is reported as 0.62 mg/L. The “Aerosol 5-MeO-DMT mass density” value ([2]; target dosage 18 mg) was 5.45 mg/L and 5.38 mg/L and 5.43 mg/L, the FPF [3, 6] was 97.95% and the GSD [3, 6] was 3.49. For the same compound, the MMAD [3, 6] was 0.40 μm, the GSD [3, 7] was 4.70 and 3.05 and 2.71 and the MMAD [3, 7] was 0.33 μm and 0.46 μm and 0.42 μm. The FPF ([3]; Experiment 1: 6 mg/capsule, NGI 30 liters/min, single runs, droplets <= 5 μm) was 96.19% and 98.35% and 99.31%, the FPF [3, 8] was 94.85% and the GSD [3, 8] was 4.63. For the same compound, the MMAD [3, 8] was 0.57 μm, the FPF [3, 9] was 94.67% and the GSD [3, 9] was 3.20. For the same compound, the MMAD [3, 9] was 0.77 μm, the FPF ([3]; Experiment 2: 6 mg/capsule, NGI 15 liters/min, glycerol-coated cups, single runs, Run 1 may not be reliable) was 95.22% and 93.54% and 95.79% and the FPF [3, 10] was 94.64%. For the same compound, the GSD [3, 10] was 2.65, the MMAD [3, 10] was 1.05 μm and the FPF [3, 11] was 93.13% and 94.08% and 96.72%. The GSD [3, 11] was 2.98 and 2.52 and 2.44, the MMAD [3, 11] was 0.98 μm and 1.19 μm and 0.97 μm and the FPF [3, 12] was 93.23% and 92.66% and 91.40%. The GSD [3, 12] was 2.66 and 2.77 and 2.10, the MMAD [3, 12] was 1.16 μm and 1.14 μm and 1.82 μm and the FPF [3, 13] was 92.43%. For the same compound, the GSD [3, 13] was 2.51, the MMAD [3, 13] was 1.37 μm and the “total percentage of 5-MeO-DMT degradation products in the aerosol” value [4] was 0.19%. The “Aerosolized dose, % of loaded dose” value ([5]; target dosage 2 mg) was 100.5% and 99.5%, the Aerosolized dose ([5]; target dosage 2 mg) was 1.9 mg and the “Aerosolized dose, % of loaded dose” value ([5]; target dosage 18 mg) was 96.3% and 96.5% and 95.9%. For the same compound, the Aerosolized dose ([5]; target dosage 18 mg) was 16.3 mg and 16.2 mg.
